In patent publication US4971980A, “Pharmacologically active benzimidazole derivatives” (Dompe Farmaceutici S.p.A., priority 1988, dated 1990):

Key:
[1] = test system: sleeping time induced by sodium pentobarbital; experiment: Effect on the sleeping time interval induced by pentobarbital; assay type: in vivo, male mice Swiss-Nos; set-up: key: IN: inactive at the dose of 100 mg/kg i.p; conditions: mice, i.p., 30 minutes before 40 mg/kg i.p. sodium pentobarbital; ED100 = doubles the sleeping time vs control
Experimental: The tests were carried out on male mice Swiss-Nos (Nossan, Correzzana, Milano) weighing 20-24 g, on an empty stomach for 18 hrs, according to the method described by Turner (Screening Methods in Pharmacology, Acad. Press, pg 70,1965). The sleep was induced by intraperitoneal administration of 40 mg/kg sodium pentobarbital. The narcosis start was considered from the moment when the animal, lying on its back, lost its straightening reflex. The narcosis end was considered from the moment when the animal recovered such reflex. The carrier or the compounds under examination were intraperitoneally administered 30 minutes before the pentobarbital administration. The resulting data are expressed as sleeping time increase per cent of the treated animals in comparison with the controls.

[2] = Acute toxicity (LD50); conditions: mouse, in vivo, ip; mice, 14 days observation
Experimental: The Letal Dose50 (LD50) was evaluated on mice using Swiss-Nos (Nossan, Correzzana, Milano) mice weighing 18-20 g each. The animals, divided into groups of 10 animals each (5M +5F), were on an empty stomach for 18 hrs, with water ad libitum, and kept in cages with grid floor. The compounds (I) were dissolved in water or suspended in 0.5% carboxymethylcellulose and intraperitoneally administered to the animals (10 ml/kg). The mortality occured in the tested animals within the following 6 hours was noted down. At the expiry of the 6th hour, the animals were allowed to eat up to the end of the experimentation which lasted 14 days. During this period all the toxic symptoms and the mortality occuring were noted.
The animals which died during the test period and those which were sacrificed at the end of the same, underwent autopsy for a macroscopic examination of their main organs. The experimental data were statistically compared with the X^2 method and LD50 was extrapolated by the `probit` method.

[3] = target: T1, H1 histaminergic receptors (Rattus norvegicus, UniProt P31390); experiment: Affinity towards H1 histaminergic receptors ([3H]Mepyramine displacement); conditions: homogenates of rat brain, 25° C., 15 minutes, pH 7.5, read-out: H1-receptor binding Ki
T1 construct: in homogenates of rat brain; from tissue; host or cells: rat whole brain homogenate
Experimental: The incubation was performed at 25° C. for 15 minutes, in a final volume of 1 ml of 50 mM Na/K phosphate buffer, pH 7.5, in the presence of […][^3 H]Mepyramine and 1.5 mg of cerebral protein.
The test compounds were dissolved in phosphate buffer or dimethylsulfoxide (DMSO), the final concentration of DMSO was 0.5%. Incubation was terminated by filtration through glass fiber GF/B filters pre-soaked with 0.1% polyethylenimine (PEI); the radioactivity trapped by filters was counted by liquid scintillation.

[4] = test system: mortality induced by histamine; experiment: Effect on the mortality induced by histamine; assay type: in vivo, male albino guinea pigs (Dunkin-Hartley); conditions: Cavia porcellus, po; guinea pigs, os, 60 minutes before 1,25 mg/kg i.v. histamine dihydrochloride; parentheses: range
Experimental: The method described by Romer D. et al. (Med.Welt, 17, 791, 1966) was followed and the tests were carried out on male albino guinea pigs (Dunkin-Hartley), weighing 350-450 g, which were kept in cages with a grid floor, on an empty stomach for 24 hrs with water ad libitum.
The compounds under examination were dissolved in 0,5% carboxymethylcellolose and orally administered to the animals; 60 minutes later the same animals were intravenously treated with 1,25 mg/kg of histamine dihydrochloride in saline solution.
It was evaluated ED50 which corresponds to the amount of the compound able to inhibit 50% of the mortality induced by histamine: the estimation of ED50 was carried out applying the `probit` method (Finney D. J., Statistical methods in biological assay, pg 512, 1957).

T1 sequence (P31390 whole entry): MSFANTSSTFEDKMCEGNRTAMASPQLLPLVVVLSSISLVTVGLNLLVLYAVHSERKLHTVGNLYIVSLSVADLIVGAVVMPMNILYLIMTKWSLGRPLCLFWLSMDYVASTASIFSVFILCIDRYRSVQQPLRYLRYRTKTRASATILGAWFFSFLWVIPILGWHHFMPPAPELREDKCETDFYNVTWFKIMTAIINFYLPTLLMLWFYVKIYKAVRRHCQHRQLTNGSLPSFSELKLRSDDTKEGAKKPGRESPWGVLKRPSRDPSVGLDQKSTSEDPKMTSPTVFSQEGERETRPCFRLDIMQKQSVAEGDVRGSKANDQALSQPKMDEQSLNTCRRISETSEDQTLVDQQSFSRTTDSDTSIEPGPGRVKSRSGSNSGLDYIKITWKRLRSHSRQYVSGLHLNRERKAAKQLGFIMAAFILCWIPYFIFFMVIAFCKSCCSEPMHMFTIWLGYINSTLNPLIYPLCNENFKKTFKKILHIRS

Structure (SMILES)	sleeping time % increase ED100 [1]	LD50 at 336 h [2] [mg/kg]	Ki [3] [nM]	ED50 [4] [mg/kg]
CN(C)CCCc1nc2ccccc2n1Cc1ccc(F)cc1 [Example 6, 1-(4-fluorobenzyl)-2-(3-dimethylaminopropyl)benzimidazole]	IN	> 100	6.1	0.026
CC(C)(C)c1ccc(C(O)CCCN2CCC(C(O)(c3ccccc3)c3ccccc3)CC2)cc1 (centres unmarked) [Terfenadine, reference compound]		> 100		0.179
CCOCCn1c(CCCN(C)C)nc2ccccc21 [Example 1, 1-(2-Ethoxyethyl)-2-(3-dimethylaminopropyl)benzimidazole]	IN	250	5.8	0.00454
CCOCCn1c(CCN(C)C)nc2ccccc21 [Example 9, 1-(2-Ethoxyethyl)-2-(2-dimethylaminoethyl)benzimidazole]	IN	> 100	6.1	0.00501
